Laboratory results reported in publication PMC7156458, “Synthetic biology based construction of biological activity-related library of fungal decalin-containing diterpenoid pyrones” (Nature Communications, 2020).

How the values were obtained:
Test in all cases: cells
Set-up in all cases: species or system JFCR39 human cancer cell lines; JFCR39 panel growth inhibition, sulforhodamine B total protein after 48 h
[1] = system: ACHN; settings: Homo sapiens, ACHN, 48 h
Method in brief: (§1)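 SRB assay, 48 h drug exposure, JFCR39 panel; RPMI-1640 + 5% FBS, 37°C/5% CO2. Read-out: total cellular protein. GI50 calculated from duplicates.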

[2] = system: DMS114; settings: Homo sapiens, DMS-114, 48 h
Method in brief: as §1

[3] = system: HBC-5; settings: HBC5, 48 h
Method in brief: as §1

[4] = system: HCT-116; settings: Homo sapiens, HCT-116, 48 h
Method in brief: as §1

[5] = system: HT-29; settings: Homo sapiens, HT-29, 48 h
Method in brief: as §1

[6] = system: LOX-IMVI; settings: Homo sapiens, LOX IMVI, 48 h
Method in brief: as §1

[7] = system: MKN-B; settings: 48 h
Method in brief: as §1

[8] = system: MKN1; settings: Homo sapiens, MKN-1, 48 h
Method in brief: as §1

[9] = system: MKN45; settings: Homo sapiens, MKN-45, 48 h
Method in brief: as §1

[10] = system: MKN74; settings: Homo sapiens, MKN-74, 48 h
Method in brief: as §1

[11] = system: NCI-H226; settings: Homo sapiens, NCI-H226, 48 h
Method in brief: as §1

[12] = system: NCI-H23; settings: Homo sapiens, NCI-H23, 48 h
Method in brief: as §1

[13] = system: NCI-H522; settings: Homo sapiens, NCI-H522, 48 h
Method in brief: as §1

[14] = system: OVCAR-3; settings: Homo sapiens, OVCAR-3, 48 h
Method in brief: as §1

[15] = system: OVCAR-5; settings: Homo sapiens, OVCAR-5, 48 h
Method in brief: as §1

[16] = system: OVCAR-8; settings: Homo sapiens, OVCAR-8, 48 h
Method in brief: as §1

[17] = system: PC-3; settings: Homo sapiens, PC-3, 48 h
Method in brief: as §1

[18] = system: RXF-631L; settings: RXF-631L, 48 h
Method in brief: as §1

[19] = system: SF-268; settings: Homo sapiens, SF-268, 48 h
Method in brief: as §1

[20] = system: SNB-78; settings: Homo sapiens, SNB-78, 48 h
Method in brief: as §1

[21] = system: MKN-A; settings: 48 h
Method in brief: as §1

SMILES	GI50 [1] [µM]	GI50 [2] [µM]	GI50 [3] [µM]	GI50 [4] [µM]	GI50 [5] [µM]	GI50 [6] [µM]	GI50 [7] [µM]	GI50 [8] [µM]	GI50 [9] [µM]	GI50 [10] [µM]	GI50 [11] [µM]	GI50 [12] [µM]	GI50 [13] [µM]	GI50 [14] [µM]	GI50 [16] [µM]	GI50 [17] [µM]	GI50 [18] [µM]	GI50 [19] [µM]	GI50 [20] [µM]	GI50 [21] [µM]	further results
C=C1CCC2C(C)(CCC=C(C)C)C(O)CCC2(C)C1Cc1c(OC)oc(CO)c(C(=O)OC)c1=O (stereo not drawn) [Compound 13]	12	5.89	15.1	18.4	17.9	13.7	15.7	18.8	16.7	14.8	16.9	10.9	6.85	10.8	17.1	14.8	16.8	20.2	17.3		GI50 [15]: 17.3 µM
C=C1CCC2C(C)(CC(=O)C=C(C)C)C(O)CCC2(C)C1Cc1c(O)c(C)c(C)oc1=O (stereo not drawn) [Compound 7]			32.5	37.3		12.2	37.7				33.4	13.2		20.6	35.7	83	65.9	77.8		20.5	
C=C1CC[C@@H]2[C@](C)(CC[C@H]3O[C@H](C=C(C)C)C[C@@]23C)[C@@H]1Cc1c(OC)oc(CO)c(C)c1=O [Compound 20]	11.1	0.0476	12.4	10.4	14.6	10.1	1.06	14.6	14.5	12.9	13.6			3.81	12.3	11.4	17	12.7	14	0.0986	GI50 [15]: 16.4 µM
C=C1CC[C@@H]2[C@](C)(CC[C@H]3O[C@H](C=C(C)C)C[C@@]23C)[C@@H]1Cc1c(OC)oc(C)c(C)c1=O [Compound 22, O-methylated higginsianin A]	2.33	0.0601	7.06	1.78	7.66	1.17	0.54	10.2	10.4	3.33	3.79	0.729	0.478	2.34	4.78		8.05	8.18	9.75	0.211	GI50 [15]: 13.4 µM
C=C1CCC2C(C)(CC(=O)C=C(C)C)C(O)CCC2(C)C1Cc1c(OC)oc(CO)c(C)c1=O (stereo not drawn) [Compound 19]	14.8	6.52	31.6	22.8	46	13.6	15.2	78.2	77.1	31	19.1	11.9	12.4	18.4	40.8	24.1		69.5	36.2	9.57	
